From ChEMBL document CHEMBL5257096, “Accelerating Drug Discovery: Synthesis of Complex Chemotypes via Multicomponent Reactions” (ACS Med Chem Lett, 2023) come the findings set out here.

Structures are written as SMILES.

The assay addresses Isocitrate dehydrogenase [NADP] cytoplasmic (Homo sapiens, UniProt O75874, R132H). Kind of assay: Inhibition of IDH1 R132H mutant (unknown origin).

Sequence of Isocitrate dehydrogenase [NADP] cytoplasmic (O75874 2-414 R132H limits assumed): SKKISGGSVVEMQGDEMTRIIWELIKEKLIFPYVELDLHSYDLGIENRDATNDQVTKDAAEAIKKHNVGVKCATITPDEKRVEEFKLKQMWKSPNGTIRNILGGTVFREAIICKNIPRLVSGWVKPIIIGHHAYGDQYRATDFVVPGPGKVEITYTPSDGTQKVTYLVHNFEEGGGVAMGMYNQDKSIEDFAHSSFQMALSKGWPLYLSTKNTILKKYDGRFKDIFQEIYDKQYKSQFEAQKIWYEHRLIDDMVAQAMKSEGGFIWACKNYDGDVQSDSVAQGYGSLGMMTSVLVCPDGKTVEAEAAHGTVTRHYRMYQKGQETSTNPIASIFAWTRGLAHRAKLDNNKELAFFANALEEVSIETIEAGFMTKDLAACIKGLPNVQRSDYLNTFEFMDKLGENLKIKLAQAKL

With `O=C(NC1CCCCC1)[C@@H](c1ccccc1)N(C(=O)Cc1cccs1)c1cccc(F)c1`, the IC50 (usually the midpoint of a concentration-inhibition curve) is > 11 µM.
